Here are results for 25 compounds from publication PMC10764907, “Aryl-quinoline-4-carbonyl hydrazone bearing different 2-methoxyphenoxyacetamides as potent α-glucosidase inhibitors; molecular dynamics, kinetic and structure–activity relationship studies” (Scientific Reports, 2024).

Each structure is given as a SMILES string. Like-named read-outs stand apart in the source and are kept apart here.

In data set [1] the target is T1, α-glucosidase (Saccharomyces cerevisiae, UniProt P53341). The experiment in a line: Enzyme kinetic studies (Lineweaver–Burk plot, secondary plot). In kind it is biochemical. From the text: This pattern indicates a competitive inhibition mechanism. […] Additionally, by plotting the Km values against different inhibitor concentrations, an estimation of the inhibition constant (Ki) was obtained.
T1 sequence (P53341 whole entry): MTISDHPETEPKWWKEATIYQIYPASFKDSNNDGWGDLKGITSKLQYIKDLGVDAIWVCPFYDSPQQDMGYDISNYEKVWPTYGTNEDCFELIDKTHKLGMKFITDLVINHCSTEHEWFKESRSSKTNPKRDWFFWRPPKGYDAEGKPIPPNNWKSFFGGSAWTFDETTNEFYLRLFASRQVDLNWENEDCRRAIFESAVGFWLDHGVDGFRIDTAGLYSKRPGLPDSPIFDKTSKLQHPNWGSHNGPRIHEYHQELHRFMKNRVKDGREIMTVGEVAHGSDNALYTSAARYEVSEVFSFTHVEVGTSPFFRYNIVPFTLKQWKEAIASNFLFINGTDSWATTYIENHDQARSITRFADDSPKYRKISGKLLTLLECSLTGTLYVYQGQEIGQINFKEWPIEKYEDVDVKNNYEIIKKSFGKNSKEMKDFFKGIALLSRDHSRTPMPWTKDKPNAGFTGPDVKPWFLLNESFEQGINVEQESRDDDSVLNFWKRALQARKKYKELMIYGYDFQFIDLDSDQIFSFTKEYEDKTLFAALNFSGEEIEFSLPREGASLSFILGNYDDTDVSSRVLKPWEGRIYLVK

The target of data set [2] is T1, α-glucosidase. The experiment in a line: biochemical. The data set is classed as biochemical. The following applies: for IC50: α-glucosidase inhibition, mean ± SD.
Data set [3] can be described thus: Concentrations of precipitation in the α-glucosidase inhibition assay. The data set is classed as physicochemical. From the text:
Table 1 The α-glucosidase inhibition assay of 11a–o. | column: Concentrations of precipitation (µM)

The target in data set [4] is T1, α-glucosidase. The note with it: cited from earlier work; for IC50: Fig. 1.
The subject of the next data set is α-amylase. Set-up: method as in doi:10.1016/j.molstruc.2022.133650. The note with it: at 108 μM; cited from earlier work.
Setting [5] is: previously reported quinoline inhibitors.

Take `CCc1ccc(NC(=O)COc2ccc(C=NNC(=O)c3cc(-c4ccc(OC)cc4)nc4ccccc34)cc2OC)cc1` [11k, N-(4-ethylphenyl)-2-(2-methoxy-4-((2-(2-(4-methoxyphenyl)quinoline-4-carbonyl)hydrazono)methyl)phenoxy)acetamide]: the melting point (as a rule, the temperature of the solid-liquid transition) is over 250 °C. The Ki – broadly, a dissociation constant, usually derived from enzyme kinetics or from competition with a known ligand – at α-glucosidase [1] worked out at 25.6 µM. Also, on α-glucosidase [1] (Lineweaver–Burk plot), the mode of inhibition result is reported as “competitive”. On α-glucosidase [2], the IC50 (usually the concentration at which inhibition is half-maximal) is 26 ± 0.8 µM.
The compound `COc1ccc(NC(=O)COc2ccc(C=NNC(=O)c3cc(-c4ccc(OC)cc4)nc4ccccc34)cc2OC)cc1` [11j, 2-(2-methoxy-4-((2-(2-(4-methoxyphenyl)quinoline-4-carbonyl)hydrazono)methyl)phenoxy)-N-(4-methoxyphenyl)acetamide] displayed a melting point of over 250 °C. In addition, half-maximal inhibition against α-glucosidase [2] (IC50) required 61.8 ± 0.5 µM. In data set [3], the “Concentrations of precipitation” value is given as at least 190 µM.
Consider `O=C(NCCCC1OC(CO)C(O)C(O)C1O)c1cc(-c2ccccc2)nc2ccccc12` (centres unmarked) [D], for which the IC50 on α-glucosidase [4] is 7.98 µM.
In turn, `COc1ccc(-c2cc(C(=O)NN=Cc3ccc(OCC(=O)Nc4ccc(Cl)cc4)c(OC)c3)c3ccccc3n2)cc1` [11n, N-(4-chlorophenyl)-2-(2-methoxy-4-((2-(2-(4-methoxyphenyl)quinoline-4-carbonyl)hydrazono)methyl)phenoxy)acetamide] had a melting point of over 250 °C. On α-glucosidase [2], this compound showed an IC50 of 48.7 ± 0.9 µM. In addition, the “Concentrations of precipitation” value in data set [3] is at least 190 µM.
As to `COc1ccc(-c2cc(C(=O)NN=Cc3ccc(OCC(=O)Nc4ccc(Br)cc4)c(OC)c3)c3ccccc3n2)cc1` [11m, N-(4-bromophenyl)-2-(2-methoxy-4-((2-(2-(4-methoxyphenyl)quinoline-4-carbonyl)hydrazono)methyl)phenoxy)acetamide], the melting point was over 250 °C. For the same compound, the IC50 on α-glucosidase [2] was 152 ± 1.7 µM. The “Concentrations of precipitation” value in data set [3] is reported as at least 190 µM.
`COc1ccc(NC(=O)COc2ccc(C=NNC(=O)c3cc(-c4ccccc4)nc4ccccc34)cc2OC)cc1` [11c, 2-(2-methoxy-4-((2-(2-phenylquinoline-4-carbonyl)hydrazineylidene)methyl)phenoxy)-N-(4-methoxyphenyl)acetamide] yielded a melting point of over 250 °C. Half-maximal inhibition against α-glucosidase [2] (IC50) was put at 43.7 ± 1 µM.
The compound `COc1ccc(-c2cc(C(=O)NN=Cc3ccc(OCC(=O)Nc4ccc([N+](=O)[O-])cc4)c(OC)c3)c3ccccc3n2)cc1` [11o, 2-(2-methoxy-4-((2-(2-(4-methoxyphenyl)quinoline-4-carbonyl)hydrazono)methyl)phenoxy)-N-(4-nitrophenyl)acetamide] gave a melting point of over 250 °C. For the same compound, half-maximal inhibition on α-glucosidase [2] (IC50) was put at 459.8 ± 1.5 µM.
For the compound `COc1cc(C=NNC(=O)c2cc(-c3ccccc3)nc3ccccc23)ccc1OCC(=O)Nc1ccc(Cl)cc1` [11f, N-(4-chlorophenyl)-2-(2-methoxy-4-((2-(2-phenylquinoline-4-carbonyl)hydrazono)methyl)phenoxy)acetamide], the melting point is over 250 °C. Further, the IC50 on α-glucosidase [2] is over 750 µM. For the same compound, the “Concentrations of precipitation” value in data set [3] is at least 375 µM.
For `COc1ccc(-c2nc3cc(C(=O)N/N=C/c4ccc(O)c(OC)c4)ccc3[nH]2)cc1` [F], on α-glucosidase [4], the IC50 is 60.1 µM.
Compound `COc1ccc(-c2cc(C(=O)NN=Cc3ccc(OCC(=O)Nc4ccc(F)cc4)c(OC)c3)c3ccccc3n2)cc1` [11l, N-(4-fluorophenyl)-2-(2-methoxy-4-((2-(2-(4-methoxyphenyl)quinoline-4-carbonyl)hydrazono)methyl)phenoxy)acetamide] registered a melting point of over 250 °C. Further, the IC50 at α-glucosidase [2] is over 750 µM. Moreover, the “Concentrations of precipitation” value in data set [3] was at least 190 µM.
Turning to `O=C(O)c1ccc2ccccc2n1` [A], on α-glucosidase [4] (setting [5]), the IC50 is 9.1 µM.
As for `O=C(CSc1nc2ccccc2cc1-c1nc2ccccc2[nH]1)Nc1ccc2ccccc2c1` [C], the IC50 at α-glucosidase [4] is 3.2 µM.
`COc1cc(C=NNC(=O)c2cc(-c3ccccc3)nc3ccccc23)ccc1OCC(=O)Nc1ccc(C)cc1` [11b, 2-(2-methoxy-4-((2-(2-phenylquinoline-4-carbonyl)hydrazono)methyl)phenoxy)-N-(p-tolyl)acetamide] had a melting point of over 250 °C. This compound registered an IC50 at α-glucosidase [2] of 95.2 ± 1.2 µM. Further, the “Concentrations of precipitation” value in data set [3] is on record as at least 375 µM.
As for `COc1cc(-c2nc3ccccc3c(=O)[nH]2)ccc1OCC(=O)Nc1ccccc1F` [J], the IC50 on α-glucosidase [4] is 14.4 µM.
The compound `COc1ccc(-c2cc(C(=O)NN=Cc3ccc(OCC(=O)Nc4ccccc4C)c(OC)c3)c3ccccc3n2)cc1` [11i, 2-(2-methoxy-4-((2-(2-(4-methoxyphenyl)quinoline-4-carbonyl)hydrazono)methyl)phenoxy)-N-(o-tolyl)acetamide] returned a melting point of over 250 °C. This compound also gave an IC50 against α-glucosidase [2] of 71.2 ± 0.6 µM.
As to `CCc1ccc(NC(=O)Cn2cc(COc3ccc(-c4nc5ccccc5[nH]4)cc3)nn2)cc1` [H], on α-glucosidase [4], the Ki was 23 µM and the mode of inhibition result is “competitive”.
On to `O=C(O)c1cnc2ccccc2c1` [B], for which the IC50 at α-glucosidase [4] (setting [5]) was 10.6 µM.
For `COc1cc(-c2nc3ccccc3[nH]2)ccc1OCC(=O)Nc1ccc(F)cc1` [I], at α-glucosidase [4], the IC50 was 99.6 µM, the Ki is 67 µM and the mode of inhibition entry was “competitive”. Further, in the data set with α-amylase, the α-amylase inhibition is reported as 45.0 ± 0.8%.
`COc1cc(C=NNC(=O)c2cc(-c3ccccc3)nc3ccccc23)ccc1OCC(=O)Nc1ccccc1C` [11a, 2-(2-methoxy-4-((2-(2-phenylquinoline-4-carbonyl)hydrazineylidene)methyl)phenoxy)-N-(o-tolyl)acetamide] gave a melting point of over 250 °C. Also, the IC50 against α-glucosidase [2] is 34.8 ± 1.1 µM.
`CCc1ccc(NC(=O)COc2ccc(C=NNC(=O)c3cc(-c4ccccc4)nc4ccccc34)cc2OC)cc1` [11d, N-(4-ethylphenyl)-2-(2-methoxy-4-((2-(2-phenylquinoline-4-carbonyl)hydrazono)methyl)phenoxy)acetamide] displayed a melting point of over 250 °C. Besides, on α-glucosidase [2], the IC50 was 156.8 ± 1.5 µM. Further, the “Concentrations of precipitation” value in data set [3] is listed as at least 375 µM.
The compound `COc1ccc(-c2cc(C(=O)NN=Cc3ccc(OCC(=O)Nc4ccccc4)c(OC)c3)c3ccccc3n2)cc1` [11h, 2-(2-methoxy-4-((2-(2-(4-methoxyphenyl)quinoline-4-carbonyl)hydrazono)methyl)phenoxy)-N-phenylacetamide] had a melting point of over 250 °C. In addition, the “fold more potent vs positive control” value on α-glucosidase [2] (vs acarbose) is “more than 11 fold”. Moreover, the IC50 against α-glucosidase [2] was found to be 62.4 ± 0.9 µM. In data set [3], the “Concentrations of precipitation” value is given as at least 375 µM.
Turning to `COc1cc(/C=N/NC(=O)CC#N)ccc1OCc1cn(Cc2ccc(Cl)cc2)nn1` [G], the IC50 at α-glucosidase [4] is 1 µM.
Consider `COc1cc(C=NNC(=O)c2cc(-c3ccccc3)nc3ccccc23)ccc1OCC(=O)Nc1ccc(F)cc1` [11e, N-(4-fluorophenyl)-2-(2-methoxy-4-((2-(2-phenylquinoline-4-carbonyl)hydrazono)methyl)phenoxy)acetamide], for which the melting point was over 250 °C. In addition, it took 52.6 ± 0.6 µM to reach half-maximal inhibition on α-glucosidase [2] (IC50).
Consider `O=C(N/N=C/c1cccc(F)c1)c1ccc2nc(-c3ccccc3)c(-c3ccccc3)nc2c1` [E], for which the IC50 at α-glucosidase [4] was 111 µM.
With `COc1cc(C=NNC(=O)c2cc(-c3ccccc3)nc3ccccc23)ccc1OCC(=O)Nc1ccc(Br)cc1` [11g, N-(4-bromophenyl)-2-(2-methoxy-4-((2-(2-phenylquinoline-4-carbonyl)hydrazineylidene)methyl)phenoxy)acetamide], the melting point is over 250 °C. For the same compound, the IC50 at α-glucosidase [2] turned out to be 180.9 ± 1.7 µM. Further, in data set [3], the “Concentrations of precipitation” value is at least 375 µM.
